Assay results as given in patent US20040143009A1, “Amines, uses thereof” (L'OREAL, priority 2002, published 2004).

Assays:
[1] = tested on: rat-isolated phrenic nerve/diaphragm (striated muscle) preparation; test: Nerve/muscle (motor plate) junction model, isolated phrenic nerve/diaphragm preparation; conditions: at 10^-4 M
Protocol: Compound 1 was tested on a nerve/muscle (motor plate) junction model obtained in a rat-isolated phrenic nerve/diaphragm (striated muscle) preparation (Pollard B. J. et al., Br. J. Anaesth., 1988, 61, 419-424).
(§1) This test is predictive of an antiwrinkle effect, as was verified by the applicant on diazepam, which is both active in vivo in humans and in this test at 10^−4 M.
The phrenic nerve and the diaphragm are carefully isolated and placed in a 50 ml tank filled with survival fluid (Krebs Henseleit fluid) kept at a temperature of 37° C. and oxygenated with an oxygen/CO2 (95/5) mixture.
Variations in the tension of the diaphragm are recorded with an initial preload of several grams.
After a relaxation period of 30 min, the diaphragm is indirectly stimulated by means of the phrenic nerve.
On each preparation, the effect of the test compound was evaluated on contractions induced by indirect stimulation via stimulation on the phrenic nerve (0.1 to 0.5 volts, 0.3 ms, 0.1 Hz). Alverine, known as a muscle-relaxing compound with antiwrinkle effect according to application FR-2 798 590, is used as control.

[2] = Antiwrinkle effect in vivo in humans
Excerpt: as §1

In the case of `CN1C(=O)CN=C(c2ccccc2)c2cc(Cl)ccc21` [diazepam], the “activity in the nerve/muscle junction test” value [1] is reported as “active” and the “antiwrinkle activity in vivo in humans” value [2] is reported as “active”.
